Assay results taken from patent publication US11154554B2, “Therapeutic combinations of a MEK inhibitor and a BTK inhibitor” (Acerta Pharma B.V., priority 2015, dated 2021).
Where two headings read alike, the source gives them in different places.

Assays:
[1] = test system: KrasLA2 non-small cell lung cancer (NSCLC) model; assay: KrasLA2 genetic tumor model of NSCLC; format: in vivo, mice; conditions: 15 mg/kg
Description: The model is designed to have sporadic expression in single cells of G12D mutant Kras off its own promoter triggered by spontaneous intrachromosomal recombination. Johnson, et al. Nature 2001, 410, 1111-16. While the mutant Kras protein is expressed in a few cells in all tissues, tumor development is seen only in the lung at high penetrance.

[2] = test system: hepatocytes; assay: In vitro metabolism in hepatocytes with 14C-labeled drug; format: in vitro ADME, mouse, rat, dog, rabbit, monkey, and human
[3] = test system: CD8^+ T cells; assay: IFN-γ level measurements for CD8+ T cell function; format: cell-based; conditions: relative to vehicle
[4] = test system: BCR activation markers CD69 and CD86; assay: In vivo potency, BCR activation markers after oral gavage; conditions: mice, 3 hours post-dose, BCR stimulated with IgM
Procedure: Mice were gavaged at increasing drug concentration and sacrificed at one time point (3 hours post-dose). BCR is stimulated with IgM and the expression of activation markers CD69 and CD86 are monitored by flow cytometry to determine ECovalues.
CD86 and CD69 are cell surface proteins that are BCR activation markers. […] BCR was stimulated with IgM and the expression of activation marker CD69 and CD86 are monitored by flow cytometry to determine EC50 values.

[5] = test system: CD8^+ T cells; assay: Cytotoxicity assay for CD8+ T cell function; format: cell-based; conditions: relative to vehicle
[6] = biological target: T1, BTK (Mus musculus, UniProt P35991); assay: Molecular probe assay of BTK occupancy in MDSCs of PDA mice; format: in vivo; conditions: 15 mg/kg BID; granulocytic and monocytic MDSC compartments; Day 8, 4 hours post dose
T1 construct: MDSCs were purified from tumor bearing PDA mice; endogenous in cells; host or cells: granulocytic and monocytic MDSCs from PDA mice dosed in vivo
T1 sequence (P35991 whole entry): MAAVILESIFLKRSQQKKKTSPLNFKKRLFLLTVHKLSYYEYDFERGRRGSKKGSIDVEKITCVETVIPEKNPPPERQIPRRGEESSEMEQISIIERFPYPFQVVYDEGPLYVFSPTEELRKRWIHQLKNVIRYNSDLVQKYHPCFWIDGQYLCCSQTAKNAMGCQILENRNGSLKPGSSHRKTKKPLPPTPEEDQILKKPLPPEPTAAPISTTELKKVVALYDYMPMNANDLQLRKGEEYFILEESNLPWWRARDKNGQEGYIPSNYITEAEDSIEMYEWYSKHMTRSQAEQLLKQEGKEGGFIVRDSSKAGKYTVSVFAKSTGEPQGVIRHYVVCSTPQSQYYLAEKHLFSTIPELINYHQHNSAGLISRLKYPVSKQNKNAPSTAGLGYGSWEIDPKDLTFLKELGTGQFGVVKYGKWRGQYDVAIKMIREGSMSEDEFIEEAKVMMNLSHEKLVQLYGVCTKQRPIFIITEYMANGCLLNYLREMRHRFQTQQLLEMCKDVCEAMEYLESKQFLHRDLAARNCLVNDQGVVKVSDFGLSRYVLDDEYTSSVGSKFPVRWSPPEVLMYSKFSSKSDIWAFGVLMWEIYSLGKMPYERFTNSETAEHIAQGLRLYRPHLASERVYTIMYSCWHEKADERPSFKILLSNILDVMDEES
Description: A molecular probe assay was used to calculate the percent irreversible occupancy of total BTK.

[7] = test system: B cell receptor; assay: Whole blood B cell receptor signalling assay (CD69 on CD19+ B cells); format: cell-based; conditions: whole blood of four healthy donors, 2 hours with compound, anti-human IgD 10 μg/mL for 18 hours, read-out: EC50, CD69 on gated CD19+ B cells
[8] = biological target: CYP3A4 (Homo sapiens, UniProt P08684); assay: Loss of parent drug as catalyzed by CYPs; format: in vitro ADME; conditions: in vitro
Chain of CYP3A4 (P08684 whole entry): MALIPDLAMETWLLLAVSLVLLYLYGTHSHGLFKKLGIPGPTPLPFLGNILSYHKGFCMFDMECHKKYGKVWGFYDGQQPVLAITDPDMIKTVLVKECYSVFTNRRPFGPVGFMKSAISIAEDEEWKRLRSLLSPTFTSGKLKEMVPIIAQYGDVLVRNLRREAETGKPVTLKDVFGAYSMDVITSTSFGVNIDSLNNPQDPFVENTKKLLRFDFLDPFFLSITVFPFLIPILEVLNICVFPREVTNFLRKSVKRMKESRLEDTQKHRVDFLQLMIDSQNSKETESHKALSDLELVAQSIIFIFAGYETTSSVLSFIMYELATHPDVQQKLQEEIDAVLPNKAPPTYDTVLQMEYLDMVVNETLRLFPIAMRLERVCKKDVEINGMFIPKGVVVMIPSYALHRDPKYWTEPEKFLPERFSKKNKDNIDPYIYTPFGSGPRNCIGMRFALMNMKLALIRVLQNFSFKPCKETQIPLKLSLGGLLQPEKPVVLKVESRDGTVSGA

[9] = test system: NK cells; assay: NK cell degranulation/ADCC whole blood assay with obinutuzumab; format: cell-based, human; conditions: 1 hour pretreatment, MEC-1 opsonised with obinutuzumab 1 μg/mL, 4 hours
Procedure: Degranulation in whole blood was performed as follows. […] Exponentially growing cells were used. On the day of the experiment, 8 mL of blood was drawn from a normal volunteer into a test tube containing desirudin to obtain a final concentration of 50 μg/mL. A white blood cell (WBC) count of whole blood was performed. […] The ibrutinib control and two blinded BTK inhibitors were diluted in X-VIVO 15 serum-free hematopoietic cell medium (Lonza Group, Ltd.) to concentrations of 200 μM, 20 μM and 2 μM. 170 μL aliquots of unmanipulated whole blood were incubated with 10 μL BTK inhibitors or X-VIVO 15 medium for one hour into a plate. […] The samples were placed in a 5% CO2 incubator for 4 hours at 37° C.
After 4 hours, the samples were mixed gently and 50 μL aliquots were removed from each well and placed in fluorescence-activated cell sorting (FACS) test tubes. A 20 μL aliquot of anti-CD56-APC antibody and anti-CD107a-PE antibody was added. The samples were incubated for 20 minutes at room temperature in the dark. An aliquot of 2 mL of FACS lysing solution (BD Biosceinces) was added. The samples were again incubated for 5 minutes, and then centrifuged at 2000 rpm for 5 minutes. Supernatant was discarded and the cell pellet was resuspended in 500 μL of PBS. The samples were analyzed on the flow cytometer for CD107a^+ NK cells (CD56^+).

[10] = test system: NK cells; assay: Rituximab ADCC mediated by NK cells; format: cell-based
[11] = test system: GPVI; assay: GPVI platelet aggregation
[12] = test system: 80 known pharmacologic targets such as G-protein-coupled receptors, nuclear receptors, proteases, and ion channels; assay: Binding assays on 80 known pharmacologic targets; conditions: screened at 10 μM
[13] = test system: human platelet-mediated thrombus formation; assay: In vivo human thrombus formation in VWF HA1 mice (laser injury); conditions: human platelets preincubated with inhibitor, laser-induced injury
[14] = test system: GPVI
[15] = biological target: EGFR (Homo sapiens, UniProt P00533); assay: EGF receptor phosphorylation in A431 cells
Chain of EGFR (P00533 25-1210): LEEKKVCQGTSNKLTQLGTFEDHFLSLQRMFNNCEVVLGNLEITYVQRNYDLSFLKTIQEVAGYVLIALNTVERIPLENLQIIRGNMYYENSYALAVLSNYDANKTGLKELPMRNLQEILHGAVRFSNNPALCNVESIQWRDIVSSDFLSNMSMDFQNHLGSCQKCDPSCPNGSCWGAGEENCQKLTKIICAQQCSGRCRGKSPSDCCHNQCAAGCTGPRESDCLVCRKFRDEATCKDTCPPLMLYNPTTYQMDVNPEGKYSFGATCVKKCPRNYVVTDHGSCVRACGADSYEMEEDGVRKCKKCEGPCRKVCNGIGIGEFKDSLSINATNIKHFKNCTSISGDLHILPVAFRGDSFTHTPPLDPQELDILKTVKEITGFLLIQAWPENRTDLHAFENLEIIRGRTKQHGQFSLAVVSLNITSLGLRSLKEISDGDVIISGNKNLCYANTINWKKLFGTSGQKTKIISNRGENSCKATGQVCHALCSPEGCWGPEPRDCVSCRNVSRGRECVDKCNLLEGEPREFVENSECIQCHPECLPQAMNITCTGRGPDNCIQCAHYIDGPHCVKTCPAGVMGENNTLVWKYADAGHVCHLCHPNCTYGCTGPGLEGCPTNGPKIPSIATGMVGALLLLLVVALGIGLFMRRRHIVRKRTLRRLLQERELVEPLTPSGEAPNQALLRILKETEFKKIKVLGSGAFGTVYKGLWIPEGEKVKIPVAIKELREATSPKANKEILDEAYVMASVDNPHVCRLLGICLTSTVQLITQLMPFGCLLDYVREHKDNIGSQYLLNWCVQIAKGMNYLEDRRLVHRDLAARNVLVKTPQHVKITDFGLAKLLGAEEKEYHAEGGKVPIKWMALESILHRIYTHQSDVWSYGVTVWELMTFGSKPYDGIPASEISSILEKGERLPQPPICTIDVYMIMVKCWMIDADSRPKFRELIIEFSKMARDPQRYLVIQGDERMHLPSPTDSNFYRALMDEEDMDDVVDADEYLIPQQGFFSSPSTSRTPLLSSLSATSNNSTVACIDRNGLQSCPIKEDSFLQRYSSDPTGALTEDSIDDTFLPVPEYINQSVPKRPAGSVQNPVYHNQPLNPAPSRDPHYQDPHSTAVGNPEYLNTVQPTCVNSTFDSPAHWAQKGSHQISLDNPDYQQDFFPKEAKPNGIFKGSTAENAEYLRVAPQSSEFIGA

[16] = test system: CYP enzymes; assay: Nonclinical CYP interaction studies; format: in vitro ADME
[17] = Glutathione binding and depletion in vitro; format: in vitro ADME
[18] = Metabolism in plasma, bile, and urine; format: in vivo; conditions: rats, dogs, and monkeys; preliminary evaluations
[19] = within the tested dose range (through 840 mg); cited from earlier work

In the case of CC#CC(=O)N1CCC[C@H]1c1nc(-c2ccc(C(=O)Nc3ccccn3)cc2)c2c(N)nccn12 [Formula (2), (S)-4-(8-amino-3-(1-(but-2-ynoyl)pyrrolidin-2-yl)imidazo[1,5-a]pyrazin-1-yl)-N-(pyridin-2-yl)benzamide], the “effects on TAMs, MDSCs, Tregs, and CD8+ cells” value [1] is reported as “consistent with suppression of the solid tumor microenviroment”, the number of tumors [1] is reported as “fewer overall tumors” and the “tumor volumes versus vehicle” value [1] is reported as “significant decrease”. For the same molecule, the unique human metabolite ([2]; hepatocytes of six species) was “No unique human metabolite was identified”, the metabolites in hepatocytes ([2]; mouse, rat, dog, rabbit, monkey, and human hepatocytes, 14C-labeled drug) was “two mono-oxidized metabolites and a glutathione conjugate” and the “CD8+ T cell function as measured by IFN-γ level” value [3] was “no effect”. The “in vivo potency at inhibiting expression of activation markers CD69 and CD86” value [4] was “more potent at inhibiting expression of activation makers than Formula (10) (ibrutinib)”, the “CD8+ T cell function as measured by % cytotoxicity” value [5] was “no effect” and the “irreversible occupancy of total BTK in MDSCs” value [6] was “Complete BTK occupancy”. For the same molecule, the EC50 [7] was 8.2 nM, the “CYP responsible for metabolism” value [8] was “metabolized by CYP3A4” and the “effect on CD56+/CD107a+ NK cells, obinutuzumab-stimulated degranulation” value [9] was “minimal effect”. For the same molecule, the “antagonism of rituximab ADCC effects mediated by NK cells” value [10] was “does not antagonize”, the IC50 ([11]; read-out: IC50, GPVI platelet aggregation, purified human platelets, Convulxin (CVX)) was 1150 nM and the “activity in binding assays with 80 known pharmacologic targets” value [12] was “significant activity only against the A3 adenosine receptor”. The “effect on human platelet-mediated thrombus formation” value [13] was “no significant effect”, the “inhibition of GPVI platelet aggregation” value [14] was “does not” and the “inhibition of in vitro EGFR phosphorylation” value ([15]; 10 μM, A431 human epidermoid cancer cell line) was “no inhibition”. The inhibition at 10 µM ([15]; A-431, read-out: EGF-induced p-EGFR inhibition) was 7%, the “potential for CYP-mediated drug-drug interactions” value [16] was “very unlikely to cause clinical drug-drug interactions” and the “glutathione binding and depletion” value [17] was “binds to glutathione but does not deplete glutathione”. For the same molecule, the “metabolic processes in plasma, bile, and urine” value [18] was “metabolic processes of oxidation, glutathione binding, and hydrolysis”.

For C=CC(=O)N1CCC[C@@H](n2nc(-c3ccc(Oc4ccccc4)cc3)c3c(N)ncnc32)C1 [Formula (10), 1-[(3R)-3-[4-amino-3-(4-phenoxyphenyl)-1H-pyrazolo[3,4-d]pyrimidin-1-yl]piperidin-1-yl]prop-2-en-1-one, reference compound], the “CD8+ T cell function as measured by IFN-γ level” value [3] was “affects CD8^+ T cell function”, the “CD8+ T cell function as measured by % cytotoxicity” value [5] was “affects CD8^+ T cell function” and the EC50 [7] was 6.1 nM. For the same molecule, the “maximum tolerated dose (MTD)” value [19] was “No maximum tolerated dose (MTD) was apparent”, the “antagonism of rituximab ADCC effects mediated by NK cells” value [10] was “undesirably antagonizes” and the “inhibition of GPVI platelet aggregation” value ([11]; human platelets, CVX-induced) was “significantly inhibits”.

With C=CC(=O)Nc1cccc(Nc2nc(Nc3ccc(OCCOC)cc3)ncc2F)c1 [Formula (17), N-(3-((5-fluoro-2-((4-(2-methoxyethoxy)phenyl)amino)pyrimidin-4-yl)amino)phenyl)acrylamide, reference compound] the EC50 [7] was 121 nM and the “effect on human platelet-mediated thrombus formation” value [13] was “effect similar to Formula (10) (ibrutinib)”.
